# Measurements as given in patent US9499534B2, “Thiazole-substituted aminopyrimidines as spleen tyrosine kinase inhibitors” (priority 2013, dated 2016).
# Target: recombinant human GST-SYK (Homo sapiens (Human), UniProt P43405)
# Test: Homogeneous Time-Resolved Fluorescence (HTRF) Assay for the Recombinant Human Syk Enzyme
# Assay type: biochemical
# Settings: GST-SYK 5 pM, ATP 25 μM, biotinylated substrate peptide 250 nM, HTRF signal
# Description: Homogeneous Time-Resolved Fluorescence (HTRF) Assay for the Recombinant Human Syk Enzyme
# A recombinant GST-hSYK fusion protein was used to measure potency of compounds to inhibit human Syk activity. The recombinant human GST-SYK (Carna Biosciences #08-176) (5 pM final concentration) was incubated with various concentrations of the inhibitor diluted in DMSO (0.1% final concentration) for 10 minutes at room temperature in 15 mM Tris-HCl (pH 7.5), 0.01% tween 20, 2 mM DTT in 384 well plate format. To initiate the reaction the biotinylated substrate peptide (250 nM final concentration) that contains the phosphorylation site for Syk was added with magnesium (5 mM final concentration) and ATP (25 μM final concentration). Final volume of the reaction was 10 μL. Phosphorylation of the peptide was allowed to proceed for 45′ at room temperature. To quench the reaction and detect the phosphorylated product, 2 nM of a Europium-anti-phosphotyrosine antibody (Perkin Elmer #AD0161) and 70 nM SA-APC (Perkin-Elmer #CR130-100) were added together in 15 mM Tris pH 7.5, 40 mM EDTA, 0.01% tween 20. Final volume of the quenching solution was 10 μL.
# The resulting HTRF signal was measured after 30 minutes on an EnVision (Perkin-Elmer) reader using a time-resolved fluorescence protocol. Table A below lists activities as IC50 values (nM) for representative compounds of the invention.
row,SMILES,IC50
1,"C[C@@H]1C[C@@](O)(c2ncc(-c3cc(Nc4nccc(C(F)(F)F)n4)cc(-c4cn[nH]c4)c3)s2)CC[C@@H]1C(=O)O (racemic) [Example 1.2, rel-(1S,2R,4R or S)-4-(5-(3-(1H-pyrazol-4-yl)-5-((4-(trifluoromethyl)pyrimidin-2-yl)amino)phenyl)thiazol-2-yl)-4-hydroxy-2-methylcyclohexanecarboxylic acid]",0.000959 µM
2,"COc1ccc(-c2cc(Nc3nccc(C(F)(F)F)n3)cc(-c3cnc([C@]4(O)CC[C@@H](C(=O)O)C(C)(C)C4)s3)c2)cc1F (single isomer, unassigned) [Example 2.12, (1R,4S or 1S,4R)-4-[5-(3′-fluoro-4′-methoxy-5-{[4-(trifluoromethyl)pyrimidin-2-yl]amino}biphenyl-3-yl)-1,3-thiazol-2-yl]-4-hydroxy-2,2-dimethylcyclohexanecarboxylic acid]",0.0353 µM
3,"CC1(C)C[C@](O)(c2ncc(-c3cc(Nc4nccc(C(F)(F)F)n4)cc(-c4ccc(C#N)c(F)c4)c3)s2)CC[C@H]1C(=O)O (single isomer, unassigned) [Example 3.3, (1R,4S or 1S,4R)-4-[5-(4′-cyano-3′-fluoro-5-{[4-(trifluoromethyl)pyrimidin-2-yl]amino}biphenyl-3-yl)-1,3-thiazol-2-yl]-4-hydroxy-2,2-dimethylcyclohexanecarboxylic acid]",0.0348 µM
4,"CC1(C)C[C@](O)(c2ncc(-c3cc(Nc4nccc(C(F)(F)F)n4)cc(C4=CCCCC4)c3)s2)CC[C@H]1C(=O)O (single isomer, unassigned) [Example 2.21, (1R,4S or 1S,4R)-4-[5-(3-cyclohex-1-en-1-yl-5-{[4-(trifluoromethyl)pyrimidin-2-yl]amino}phenyl)-1,3-thiazol-2-yl]-4-hydroxy-2,2-dimethylcyclohexanecarboxylic acid]",0.0176 µM
5,"CC1(C)C[C@](O)(c2ncc(-c3cc(Nc4nccc(C(F)(F)F)n4)cc(-c4ccccc4F)c3)s2)CC[C@H]1C(=O)O (single isomer, unassigned) [Example 2.25, (1R,4S or 1S,4R)-4-[5-(2′-fluoro-5-{[4-(trifluoromethyl)pyrimidin-2-yl]amino}biphenyl-3-yl)-1,3-thiazol-2-yl]-4-hydroxy-2,2-dimethylcyclohexanecarboxylic acid]",0.0352 µM

# Next, values leading:
row,IC50,SMILES
1,0.00577 µM,"CC1(C)CC(O)(c2ncc(-c3cc(C#N)cc(Nc4nccc(C(F)(F)F)n4)c3)s2)CCC1C(=O)O (single isomer, unassigned) [Example 1.8, (1R,4S or 1S,4R)-4-[5-(3-cyano-5-{[4-(trifluoromethyl)pyrimidin-2-yl]amino}phenyl)-1,3-thiazol-2-yl]-4-hydroxy-2,2-dimethylcyclohexanecarboxylic acid]"
2,0.0117 µM,"CC1(C)C[C@](O)(c2ncc(-c3cc(Nc4nccc(C(F)(F)F)n4)cc(-c4ccsc4)c3)s2)CC[C@H]1C(=O)O (single isomer, unassigned) [Example 2.8, (1R,4S or 1S,4R)-4-hydroxy-2,2-dimethyl-4-[5-(3-thiophen-3-yl-5-{[4-(trifluoromethyl)pyrimidin-2-yl]amino}phenyl)-1,3-thiazol-2-yl]cyclohexanecarboxylic acid]"
3,0.0635 µM,"CCn1cc(-c2cc(Nc3nccc(C(F)(F)F)n3)cc(-c3cnc([C@]4(O)CC[C@@H](C(=O)O)C(C)(C)C4)s3)c2)cn1 (single isomer, unassigned) [Example 2.4, (1R,4S or 1S,4R)-4-{5-3-(1-ethyl-1H-pyrazol-4-yl)-5-{[4-(trifluoromethyl)pyrimidin-2-yl]amino}phenyl]-1,3-thiazol-2-yl}-4-hydroxy-2,2-dimethylcyclohexanecarboxylic acid]"
4,0.00111 µM,"CC1(C)C[C@](O)(c2ncc(-c3cc(Nc4nccc(C(F)(F)F)n4)cc(-c4cc[nH]n4)c3)s2)CC[C@H]1C(=O)O (single isomer, unassigned) [Example 2.11, (1R,4S or 1S,4R)-4-hydroxy-2,2-dimethyl-4-{5-[3-(1H-pyrazol-3-yl)-5-{[4-(trifluoromethyl)pyrimidin-2-yl]amino}phenyl]-1,3-thiazol-2-yl}cyclohexanecarboxylic acid]"
